Source: US6420438B1, “1-amino-7-isoquinoline derivatives as serine protease inhibitors” (Tularik Limited, priority 1998, dated 2002)
pKi: −log10 of the molar value.

Target: T1, human factor Xa (Homo sapiens, UniProt P00742)
T1 construct: Purified human factor Xa; purchased Alexis Corporation, Nottingham, UK
Experiment: Enzyme inhibition assay, chromogenic substrate pefachrome-FXA
Type: biochemical
Conditions: room temperature, 0.1M phosphate buffer, pH7.4

T1 sequence (P00742 235-488 limits assumed): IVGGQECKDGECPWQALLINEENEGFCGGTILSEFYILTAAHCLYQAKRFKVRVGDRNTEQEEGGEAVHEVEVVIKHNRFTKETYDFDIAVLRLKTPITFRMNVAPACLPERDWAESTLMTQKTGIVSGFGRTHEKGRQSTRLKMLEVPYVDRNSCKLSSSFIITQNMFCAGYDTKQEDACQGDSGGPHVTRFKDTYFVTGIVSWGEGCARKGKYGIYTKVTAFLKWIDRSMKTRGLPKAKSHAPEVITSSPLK
T1 sequence (P00742 41-179 partner limits assumed): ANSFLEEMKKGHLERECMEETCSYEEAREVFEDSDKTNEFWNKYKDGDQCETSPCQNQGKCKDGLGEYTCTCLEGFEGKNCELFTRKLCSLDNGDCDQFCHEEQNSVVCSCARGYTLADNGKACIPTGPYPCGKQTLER

| SMILES | pKi |
| --- | --- |
| CN1CCC(C2CCN(C(=O)[C@H](NC(=O)c3ccc4ccnc(N)c4c3)c3ccccc3)CC2)CC1 [Example 75, 1-Aminoisoquinolin-7-oyl-D-phenylglycine-4,4′-(1′-methyl)bipiperidinamide] | 8.10 |
| N=C(N)c1ccccc1 [benzamidine] | 3.81 |
